{"source": "paper PMC7247425", "about": "“MRP1-Collateral Sensitizers as a Novel Therapeutic Approach in Resistant Cancer Therapy: An In Vitro and In Vivo Study in Lung Resistant Tumor” (International Journal of Molecular Sciences, 2020)", "key": {"A549/DX [1]": {"test_system": "A549/DX", "assay": "Mitochondrial ROS production in A549/DX (MitoSOX Red)", "assay_type": "cell-based, human", "settings": "24 h; for Mitochondrial ROS production with cis-Pt: 10 μM + cis-Pt 25 μM; for Mitochondrial ROS production, compound alone / Mitochondrial ROS production with Mitotempol: 10 μM; for Mitochondrial ROS production with Mitotempol: Mitotempol 10 mM", "protocol": "An increase in ROS of mitochondrial origin is particularly effective in killing multidrug-resistant cells. To investigate whether the ROS were of mithocondrial origin, the same experiment was set up evaluating ROS production at 24 h with Mitotempol, the scavenger of mithocondrial ROS.\n(§1) Here, 1 × 10^6 cells were re-suspended in a final volume of 0.5 mL PBS and incubated for 30 min at 37 °C with 5 μM of the fluorescent probe MitoSOX Red (Invitrogen Life Technology, Milano, Italy) in the dark. Cells were then centrifuged at 13,000× g at 37 °C and re-suspended in 0.5 mL PBS. The fluorescence of each sample, considered as the index of ROS levels, was read at 510 (λ excitation) and 580 nm (λ emission) using a Synergy HT Multi-Mode Microplate Reader (Bio-Tek Instruments). The results were expressed as nmol mitochondrial ROS/mg cell proteins. A preliminary titration curve was set up by incubating the cells for 1 h with the cells treated with serial dilutions (10–0.01 nM) of the pro-oxidant agent menadione."}, "sigma-2 receptors": {"molecular_target": "sigma-2 receptors", "settings": "cited from earlier work; for Ki: read-out: Ki towards sigma-2 receptors"}, "MRP1": {"molecular_target": "MRP1 (Homo sapiens, UniProt P33527)", "sequence (P33527 whole entry)": "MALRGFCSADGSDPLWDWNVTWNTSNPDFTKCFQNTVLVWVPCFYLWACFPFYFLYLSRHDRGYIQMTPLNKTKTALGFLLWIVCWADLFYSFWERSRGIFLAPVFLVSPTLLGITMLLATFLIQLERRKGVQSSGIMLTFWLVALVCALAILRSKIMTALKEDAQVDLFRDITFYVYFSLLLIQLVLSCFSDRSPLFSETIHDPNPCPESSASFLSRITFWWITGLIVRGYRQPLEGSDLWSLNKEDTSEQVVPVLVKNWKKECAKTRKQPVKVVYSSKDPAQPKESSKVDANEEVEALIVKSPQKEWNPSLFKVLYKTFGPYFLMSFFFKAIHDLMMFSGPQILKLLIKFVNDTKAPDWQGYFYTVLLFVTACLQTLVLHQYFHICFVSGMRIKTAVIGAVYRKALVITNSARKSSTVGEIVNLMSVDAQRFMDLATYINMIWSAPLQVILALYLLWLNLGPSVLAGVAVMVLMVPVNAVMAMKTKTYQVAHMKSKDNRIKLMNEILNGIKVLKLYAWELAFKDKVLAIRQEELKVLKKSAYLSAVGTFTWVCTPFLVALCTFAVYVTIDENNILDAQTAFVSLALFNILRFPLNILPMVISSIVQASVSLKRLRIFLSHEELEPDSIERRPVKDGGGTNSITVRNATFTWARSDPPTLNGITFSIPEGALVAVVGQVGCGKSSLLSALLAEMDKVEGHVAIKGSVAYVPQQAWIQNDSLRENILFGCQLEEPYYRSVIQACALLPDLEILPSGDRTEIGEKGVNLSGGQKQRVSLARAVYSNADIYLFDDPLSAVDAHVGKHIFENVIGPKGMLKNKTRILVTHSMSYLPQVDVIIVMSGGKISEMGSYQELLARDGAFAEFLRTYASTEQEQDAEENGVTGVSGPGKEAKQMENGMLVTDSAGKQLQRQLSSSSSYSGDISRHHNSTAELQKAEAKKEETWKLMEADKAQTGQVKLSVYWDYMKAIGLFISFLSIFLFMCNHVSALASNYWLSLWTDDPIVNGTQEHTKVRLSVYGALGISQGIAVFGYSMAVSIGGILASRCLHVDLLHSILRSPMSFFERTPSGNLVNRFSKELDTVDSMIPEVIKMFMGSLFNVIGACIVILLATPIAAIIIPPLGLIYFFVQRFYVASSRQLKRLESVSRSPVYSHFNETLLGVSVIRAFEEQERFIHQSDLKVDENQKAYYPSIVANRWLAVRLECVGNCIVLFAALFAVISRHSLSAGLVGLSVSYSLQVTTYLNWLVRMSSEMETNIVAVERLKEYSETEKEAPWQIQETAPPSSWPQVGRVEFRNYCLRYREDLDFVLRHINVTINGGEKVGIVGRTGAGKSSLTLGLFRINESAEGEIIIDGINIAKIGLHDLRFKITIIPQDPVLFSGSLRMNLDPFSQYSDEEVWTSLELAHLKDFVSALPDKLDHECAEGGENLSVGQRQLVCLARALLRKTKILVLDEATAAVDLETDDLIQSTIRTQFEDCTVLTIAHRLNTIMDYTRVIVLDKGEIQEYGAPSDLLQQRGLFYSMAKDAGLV", "assay": "Calcein-AM transport inhibition in MDCK-MRP1 cells (MRP1 activity)", "quoted_text": "The activity at the MRP1 pump was determined measuring the transport inhibition of the pro-fluorescent probe Calcein-AM, an MRP1 substrate, in the MRP1-overexpressing cell line (MDCK-MRP1) by the in vitro biological assay usually performed to study an MRP1 interaction.\nEach cell line (30,000 cells per well) was seeded into a black CulturePlate 96/well plate with a 100 μL medium and allowed to become confluent overnight. […] In these experimental conditions, the Calcein cell accumulation in the absence and in the presence of the tested compounds was evaluated and the fluorescence basal level was estimated with the untreated cells. In treated wells, the increase in fluorescence with respect to the basal level was measured. EC50 values were determined by fitting the fluorescence increase percentage vs. log(dose)."}, "A549/DX cells [2]": {"test_system": "A549/DX cells", "assay": "Cell viability (MTT) of A549/DX cells at 72 h, alone and in co-administration", "assay_type": "cell-based, human", "settings": "for Cell viability / cytotoxic effect, compound alone: 10 μM; for Cell viability in co-administration with MRP1 inhibitor MK571: compound 10 μM + MK571 25 μM; for Cytotoxic effect in co-administration with cis-Pt: compound 10 μM + cis-Pt 25 μM", "protocol": "Indeed, the accurate detection of cell viability in A549 cells was critical in calculating the SR in a reliable manner.\nFirst, we wondered if there was a correlation between the inhibition of the MRP1 protein and the CS properties of the compounds.\nThe determination of cell growth was performed using an MTT assay at 24 or 72 h. On day 1, 10,000 cells/well were seeded into 96-well plates in a volume of 100 μL. […] In all the experiments, the various drug solvents (ethanol, DMSO) were added in each control to evaluate a possible solvent cytotoxicity. After the established incubation time with drugs, 10 μL MTT (0.5 mg/mL) was added to each well, and after 3 h incubation at 37°C, the supernatant was removed. The formazan crystals were solubilized using 100 μL of DMSO and the absorbance values at 570 and 630 nm were determined on the microplate reader Victor 3 from PerkinElmer Life Sciences. The absorbance of the untreated cells was considered equal to 100% cell viability; the viability of cells measured in each experimental condition was expressed as a percentage of viable cells in the considered condition vs. the viability of the untreated cells."}, "A549/DX cells [3]": {"test_system": "A549/DX cells", "assay": "Cytotoxicity in A549/DX and parental A549 cells, selectivity ratio", "assay_type": "cell-based, human", "settings": "cytotoxicity in parental A549 vs resistant A549/DX cells, 24 h", "description": "Therefore, A549/DX cells were selected as a model to investigate the CS properties of our compounds. Firstly, in order to confirm the data observed on the “pure” model MDCK-MRP1, we tested, in the same experimental conditions, the SR of F397, F400, and F421 by measuring their cytotoxicity in the resistant A549/DX cells and their parental counterpart A549, obtaining an SR ≥ 2 for all (SR = 2.5 for derivative F397, SR = 2.1 for F400, and SR = 2 for F421).\nSince the doubling time of A549 cells is 22 h and the doubling time of A549/DX cells is 61 h (data not shown), in this first experimental set we used a 24 h time, i.e., the most suitable for A549 cells’ cytotoxicity as performed in the “pure” MRP1 model. Indeed, the accurate detection of cell viability in A549 cells was critical in calculating the SR in a reliable manner. The following experiments, all performed in A549/DX cells, were performed after 72 h, i.e., the best timing to detect a cytotoxic effect on the slowly growing resistant population.\nThe determination of cell growth was performed using an MTT assay at 24 or 72 h. On day 1, 10,000 cells/well were seeded into 96-well plates in a volume of 100 μL. On day 2, the drugs concentrations (0.1, 1, 10, 25 μM) were added. In all the experiments, the various drug solvents (ethanol, DMSO) were added in each control to evaluate a possible solvent cytotoxicity. After the established incubation time with drugs, 10 μL MTT (0.5 mg/mL) was added to each well, and after 3 h incubation at 37°C, the supernatant was removed. The formazan crystals were solubilized using 100 μL of DMSO and the absorbance values at 570 and 630 nm were determined on the microplate reader Victor 3 from PerkinElmer Life Sciences. The absorbance of the untreated cells was considered equal to 100% cell viability; the viability of cells measured in each experimental condition was expressed as a percentage of viable cells in the considered condition vs. the viability of the untreated cells."}, "A549/DX [4]": {"test_system": "A549/DX", "assay": "Intracellular total ROS production in A549/DX (DCFDA-AM)", "assay_type": "cell-based, human", "settings": "for Intracellular ROS production with cis-Pt: 10 μM + 25 μM cis-Pt; for Intracellular ROS production with cis-Pt / Intracellular ROS production, compound alone: 24 h; for Intracellular ROS production, compound alone / Intracellular ROS production with ROS scavenger Tempol: 10 μM; for Intracellular ROS production with ROS scavenger Tempol: with 10 mM Tempol", "description": "One of the possible reasons of this sensitization is the ability of these three compounds to inhibit the efflux of cis-Pt, which is MRP1-mediated. […] This could be associated with a second reason, considering one of the putative mechanisms of CS consisting of an increased production of ROS, capable of triggering the apoptosis of MDR cells. To investigate whether this mechanism is involved in the sensitizing effects elicited by F397, F400, and F421, we measured the intracellular ROS production in A549/DX after 24 h treatment with these three molecules at 10 μM, with and without 25 μM cis-Pt (Figure 5A). […] Moreover, to verify whether the increase in ROS induced the reduction in cell viability elicited by the compounds, we evaluated the antiproliferative effect at 72 h of these three sensitizers alone and with 25 μM cis-Pt, adding 10 mM Tempol at time zero and after 48 h from the incubation.\nas §1, with “10^6 whole” for “10^6”, “5-(and-6)-chloromethyl-2’,7’-dichlorodihydro-fluorescein diacetate-acetoxymethyl ester (DCFDA-AM, Sigma Chemicals Co.)” for “MitoSOX Red (Invitrogen Life Technology, Milano, Italy)”, “492” for “510”, “517” for “580”, “total” for “mitochondrial”"}}}
{"smiles": "COc1cc2c(cc1OC)CN(CCCCc1cn(-c3ccc(F)cc3)c3ccccc13)CC2", "note": "[F397, 6,7-dimethoxy-2-{4-[1-(4-fluorophenyl)-1H-indol-3-yl]butyl}-1,2,3,4-tetrahydroisoquinoline]", "values": [{"measurement": "Mitochondrial ROS production with cis-Pt", "setting": "A549/DX [1]", "value": "enforced by the concurrent administration of cis-Pt"}, {"measurement": "Mitochondrial ROS production, compound alone", "setting": "A549/DX [1]", "value": "increased the intramithocondrial ROS"}, {"measurement": "Mitochondrial ROS production with Mitotempol", "setting": "A549/DX [1]", "value": "reversed by Mitotempol"}, {"measurement": "Ki", "setting": "sigma-2 receptors", "value": 0.00534, "unit": "µM"}, {"measurement": "EC50", "setting": "MRP1", "value": "16.7 ± 3.2", "unit": "µM"}, {"measurement": "Cell viability / cytotoxic effect, compound alone", "setting": "A549/DX cells [2]", "value": "cytotoxic effect on their own"}, {"measurement": "Cell viability in co-administration with MRP1 inhibitor MK571", "setting": "A549/DX cells [2]", "value": "reverted by the MRP1 inhibitor MK571"}, {"measurement": "Cytotoxic effect in co-administration with cis-Pt", "setting": "A549/DX cells [2]", "value": "drastically increases upon co-administration with cis-Pt"}, {"measurement": "SR (selectivity ratio)", "setting": "A549/DX cells [3]", "value": 2.5}, {"measurement": "Intracellular ROS production with cis-Pt", "setting": "A549/DX [4]", "value": "further enhanced when they were co-administrated with the antineoplastic drug"}, {"measurement": "Intracellular ROS production, compound alone", "setting": "A549/DX [4]", "value": "increased the amount of intracellular ROS"}, {"measurement": "Intracellular ROS production with ROS scavenger Tempol", "setting": "A549/DX [4]", "value": "reverted by the ROS scavenger Tempol"}]}
{"smiles": "COc1cc2c(cc1OC)CN(C(=O)CCC1CCCc3c(OC)cccc31)CC2", "note": "(stereo not drawn) [F400, 6,7-dimethoxy-2-[3-(5-methoxy-1,2,3,4-tetrahydronaphthalen-1-yl)propionyl]-1,2,3,4 tetrahydroisoquinoline]", "values": [{"measurement": "Mitochondrial ROS production with cis-Pt", "setting": "A549/DX [1]", "value": "enforced by the concurrent administration of cis-Pt"}, {"measurement": "Mitochondrial ROS production, compound alone", "setting": "A549/DX [1]", "value": "increased the intramithocondrial ROS"}, {"measurement": "Mitochondrial ROS production with Mitotempol", "setting": "A549/DX [1]", "value": "reversed by Mitotempol"}, {"measurement": "sigma-2 receptor affinity", "setting": "sigma-2 receptors", "value": "devoid of sigma-2 receptor affinity"}, {"measurement": "EC50", "setting": "MRP1", "value": "17.6 ± 3.8", "unit": "µM"}, {"measurement": "Cell viability / cytotoxic effect, compound alone", "setting": "A549/DX cells [2]", "value": "cytotoxic effect on their own"}, {"measurement": "Cell viability in co-administration with MRP1 inhibitor MK571", "setting": "A549/DX cells [2]", "value": "reverted by the MRP1 inhibitor MK571"}, {"measurement": "Cytotoxic effect in co-administration with cis-Pt", "setting": "A549/DX cells [2]", "value": "drastically increases upon co-administration with cis-Pt"}, {"measurement": "SR (selectivity ratio)", "setting": "A549/DX cells [3]", "value": 2.1}, {"measurement": "Intracellular ROS production with cis-Pt", "setting": "A549/DX [4]", "value": "further enhanced when they were co-administrated with the antineoplastic drug"}, {"measurement": "Intracellular ROS production, compound alone", "setting": "A549/DX [4]", "value": "increased the amount of intracellular ROS"}, {"measurement": "Intracellular ROS production with ROS scavenger Tempol", "setting": "A549/DX [4]", "value": "reverted by the ROS scavenger Tempol"}]}
{"smiles": "COc1ccc(CNCCCCc2cn(-c3ccc(F)cc3)c3ccccc23)cc1OC", "note": "[F421, N-{4-[1-(4-fluorophenyl)-1H-indol-3-yl]butyl}-3,4-dimethoxybenzylamine]", "values": [{"measurement": "Mitochondrial ROS production with cis-Pt", "setting": "A549/DX [1]", "value": "enforced by the concurrent administration of cis-Pt"}, {"measurement": "Mitochondrial ROS production, compound alone", "setting": "A549/DX [1]", "value": "increased the intramithocondrial ROS"}, {"measurement": "Mitochondrial ROS production with Mitotempol", "setting": "A549/DX [1]", "value": "reversed by Mitotempol"}, {"measurement": "Ki", "setting": "sigma-2 receptors", "value": 0.169, "unit": "µM"}, {"measurement": "EC50", "setting": "MRP1", "value": "28 ± 4.8", "unit": "µM"}, {"measurement": "Cell viability / cytotoxic effect, compound alone", "setting": "A549/DX cells [2]", "value": "cytotoxic effect on their own"}, {"measurement": "Cell viability in co-administration with MRP1 inhibitor MK571", "setting": "A549/DX cells [2]", "value": "reverted by the MRP1 inhibitor MK571"}, {"measurement": "Cytotoxic effect in co-administration with cis-Pt", "setting": "A549/DX cells [2]", "value": "drastically increases upon co-administration with cis-Pt"}, {"measurement": "SR (selectivity ratio)", "setting": "A549/DX cells [3]", "value": 2}, {"measurement": "Intracellular ROS production with cis-Pt", "setting": "A549/DX [4]", "value": "further enhanced when they were co-administrated with the antineoplastic drug"}, {"measurement": "Intracellular ROS production, compound alone", "setting": "A549/DX [4]", "value": "increased the amount of intracellular ROS"}, {"measurement": "Intracellular ROS production with ROS scavenger Tempol", "setting": "A549/DX [4]", "value": "reverted by the ROS scavenger Tempol"}]}
